We go through 14 molecules from the Kinase Knowledgebase extract (Sharma et al. 2016).

For this assay, the target named is PIK3CA (human) (UniProt P42336). Nature of the assay: Assessment of PIK3CA Kinase Activity.
PIK3CA (human), sequence (P42336 whole entry, looked up): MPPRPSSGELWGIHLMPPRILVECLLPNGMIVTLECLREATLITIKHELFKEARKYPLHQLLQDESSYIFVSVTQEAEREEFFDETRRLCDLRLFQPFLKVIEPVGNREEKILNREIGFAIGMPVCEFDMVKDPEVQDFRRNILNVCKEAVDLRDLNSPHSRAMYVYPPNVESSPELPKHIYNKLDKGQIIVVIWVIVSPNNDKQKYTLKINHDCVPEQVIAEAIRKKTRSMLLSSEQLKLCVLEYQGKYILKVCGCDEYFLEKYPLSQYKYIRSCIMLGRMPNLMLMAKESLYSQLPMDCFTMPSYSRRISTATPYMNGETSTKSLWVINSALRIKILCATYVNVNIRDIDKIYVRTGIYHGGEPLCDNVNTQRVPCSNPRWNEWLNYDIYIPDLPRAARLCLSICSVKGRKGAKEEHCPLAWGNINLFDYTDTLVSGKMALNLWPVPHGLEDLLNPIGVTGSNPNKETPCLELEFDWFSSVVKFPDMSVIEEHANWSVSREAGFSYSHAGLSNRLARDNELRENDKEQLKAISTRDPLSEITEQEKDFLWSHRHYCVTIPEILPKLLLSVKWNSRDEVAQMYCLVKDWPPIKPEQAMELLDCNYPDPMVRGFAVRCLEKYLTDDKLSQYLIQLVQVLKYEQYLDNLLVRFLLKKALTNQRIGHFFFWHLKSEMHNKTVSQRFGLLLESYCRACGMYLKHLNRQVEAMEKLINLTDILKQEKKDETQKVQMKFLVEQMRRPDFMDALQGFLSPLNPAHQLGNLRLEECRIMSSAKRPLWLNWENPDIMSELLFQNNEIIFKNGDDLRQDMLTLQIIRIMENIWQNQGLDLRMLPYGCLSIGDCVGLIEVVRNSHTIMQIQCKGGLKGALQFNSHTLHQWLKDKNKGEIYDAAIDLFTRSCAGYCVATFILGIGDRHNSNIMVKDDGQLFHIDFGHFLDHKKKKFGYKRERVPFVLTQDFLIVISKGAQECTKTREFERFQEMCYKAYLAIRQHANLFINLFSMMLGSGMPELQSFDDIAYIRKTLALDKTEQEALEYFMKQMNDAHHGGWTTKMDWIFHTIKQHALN
`CN(C)C1CCN(Cc2cc3nc(-n4ccc5ccccc54)nc(N4CCOCC4)c3s2)CC1` returned an IC50 of 562 nM.

In the case of `CN(C)C1CCN(Cc2cc3nc(N4CCc5ccccc54)nc(N4CCOCC4)c3s2)CC1`, the IC50 was 707 nM.

Regarding `Cn1c(CN2CCC(N3CCOCC3)CC2)nc2c(N3CCOCC3)nc(-c3c[nH]c4ccccc34)nc21`, the IC50 stood at 5010 nM.

`Cn1c(CN2CCC(C(C)(C)O)CC2)nc2c(N3CCOCC3)nc(-n3c(C#N)cc4ccccc43)nc21` yielded an IC50 of 5300 nM.

`Cc1cc2cc(F)ccc2n1-c1nc(N2CCOCC2)c2sc(CN3CCC(N(C)C)CC3)cc2n1` showed an IC50 of 1600 nM.

`COCc1cc2ccccc2n1-c1nc(N2CCOCC2)c2nc(CN3CCC(C(C)(C)O)CC3)n(C)c2n1` returned an IC50 of 5390 nM.

`CN(C)[C@@H]1CCN(Cc2nc3c(N4CCOCC4)nc(-c4c[nH]c5ccccc45)nc3n2C)C[C@@H]1F` yielded a half-inhibitory concentration (IC50) of 720 nM.

Take `CC(C)(OCCN1CCCC1)c1cc2nc(-c3c[nH]c4ccccc34)nc(N3CCOCC3)c2s1`: the IC50 is 529 nM.

`CN(C)C1CCN(Cc2cc3nc(-c4c[nH]c5ccc(F)cc45)nc(N4CCOCC4)c3s2)CC1`: the IC50 worked out at 1330 nM.

`O=C1COC2(CCN(Cc3cc4nc(-c5c[nH]c6ccccc56)nc(N5CCOCC5)c4s3)CC2)CN1` gave an IC50 of 1380 nM.

On to `c1ccc2c(-c3nc(N4CCOCC4)c4nc(CN5CC(N6CCOCC6)C5)sc4n3)c[nH]c2c1`, for which the IC50 is 396 nM.

`CN(C)C1CCN(Cc2cc3nc(-c4c[nH]c5ccccc45)nc(N4CCOCC4)c3s2)CC1` showed an IC50 of 495 nM.

Molecule `CC(C)(C(N)=O)N1CCN(Cc2cc3nc(-c4c(C#N)[nH]c5ccccc45)nc(N4CCOCC4)c3s2)CC1` had an IC50 of 809 nM.

On to `CN(C)C1CCN(Cc2cc3nc(-n4ccc5cc(O)ccc54)nc(N4CCOCC4)c3s2)CC1`, for which the IC50 is 814 nM.
